Reference: ChEMBL document CHEMBL1201862, “PubChem BioAssay data set” (2004)
Calls of active or inactive are those of the source.

Legend:
Assay type in all cases: functional
Fatty acid synthase [1] = target: T1, Fatty acid synthase (Homo sapiens, UniProt P49327); test: FAS thioesterase domain inhibitors, dose response, biochemical, endpoint fluorescence intensity, uHTS hits (AID 624327);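 further: fluorescence from hydrolysis of an O-methyl fluorescein acyl ester substrate by the enzyme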
Fatty acid synthase [2] = target: T1, Fatty acid synthase; test: FAS thioesterase domain inhibitors, dose response, biochemical, kinetic fluorescence intensity (AID 624326);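 further: rate of fluorescence rise from hydrolysis of a fluorogenic O-methyl fluorescein ester substrate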
Caspase-3 = target: T2, Caspase-3 (Homo sapiens, UniProt P42574);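 further: Dose-response selectivity test against caspase-3 for candidate inhibitors of sentrin-specific proteases (SENPs)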
T2 sequence (P42574 whole entry): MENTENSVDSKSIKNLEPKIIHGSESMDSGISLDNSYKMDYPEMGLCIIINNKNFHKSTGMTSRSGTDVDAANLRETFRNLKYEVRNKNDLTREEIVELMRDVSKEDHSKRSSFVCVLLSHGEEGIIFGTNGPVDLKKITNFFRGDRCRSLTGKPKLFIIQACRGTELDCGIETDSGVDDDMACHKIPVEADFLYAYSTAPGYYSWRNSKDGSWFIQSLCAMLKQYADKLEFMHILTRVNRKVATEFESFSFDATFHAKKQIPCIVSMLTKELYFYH

[3] = target: T3, Sentrin-specific protease 7 (Homo sapiens, UniProt Q9BQF6);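 further: Luminescence-based dose-response confirmation of ultra-high-throughput screening hits, measuring inhibition of SENP7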
T3 sequence (Q9BQF6 whole entry): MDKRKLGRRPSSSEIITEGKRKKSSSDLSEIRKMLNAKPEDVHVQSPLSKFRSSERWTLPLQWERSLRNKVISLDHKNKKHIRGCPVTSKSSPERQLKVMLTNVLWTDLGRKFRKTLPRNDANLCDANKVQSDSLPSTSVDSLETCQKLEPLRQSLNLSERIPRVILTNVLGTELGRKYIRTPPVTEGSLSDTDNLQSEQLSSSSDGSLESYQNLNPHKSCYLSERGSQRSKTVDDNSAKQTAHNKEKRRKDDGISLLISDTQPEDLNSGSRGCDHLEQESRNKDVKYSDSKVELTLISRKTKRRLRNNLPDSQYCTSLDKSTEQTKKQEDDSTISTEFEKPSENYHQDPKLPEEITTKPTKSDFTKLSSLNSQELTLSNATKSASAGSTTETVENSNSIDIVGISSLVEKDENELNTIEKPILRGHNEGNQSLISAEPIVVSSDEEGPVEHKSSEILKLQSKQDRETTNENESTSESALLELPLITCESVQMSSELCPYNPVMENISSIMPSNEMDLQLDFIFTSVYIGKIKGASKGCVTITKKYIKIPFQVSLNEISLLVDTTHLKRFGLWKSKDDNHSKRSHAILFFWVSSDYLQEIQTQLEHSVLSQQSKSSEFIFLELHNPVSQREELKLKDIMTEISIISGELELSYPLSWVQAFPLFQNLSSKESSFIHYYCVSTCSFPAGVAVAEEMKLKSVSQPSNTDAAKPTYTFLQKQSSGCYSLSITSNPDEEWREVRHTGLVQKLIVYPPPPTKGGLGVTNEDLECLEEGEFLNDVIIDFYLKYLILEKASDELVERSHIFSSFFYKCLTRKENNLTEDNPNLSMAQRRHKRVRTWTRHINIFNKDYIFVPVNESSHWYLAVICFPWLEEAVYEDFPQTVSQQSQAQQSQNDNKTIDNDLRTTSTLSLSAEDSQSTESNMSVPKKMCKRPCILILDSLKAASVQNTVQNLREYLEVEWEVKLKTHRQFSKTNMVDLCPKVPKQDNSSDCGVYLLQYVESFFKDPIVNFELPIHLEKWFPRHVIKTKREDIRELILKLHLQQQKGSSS

[4] = target: T4, Sentrin-specific protease 6 (Homo sapiens, UniProt Q9GZR1);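 further: Luminescence-based dose-response confirmatory assay of SENP6 inhibition, following up an ultra-high-throughput screen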
T4 sequence (Q9GZR1 whole entry): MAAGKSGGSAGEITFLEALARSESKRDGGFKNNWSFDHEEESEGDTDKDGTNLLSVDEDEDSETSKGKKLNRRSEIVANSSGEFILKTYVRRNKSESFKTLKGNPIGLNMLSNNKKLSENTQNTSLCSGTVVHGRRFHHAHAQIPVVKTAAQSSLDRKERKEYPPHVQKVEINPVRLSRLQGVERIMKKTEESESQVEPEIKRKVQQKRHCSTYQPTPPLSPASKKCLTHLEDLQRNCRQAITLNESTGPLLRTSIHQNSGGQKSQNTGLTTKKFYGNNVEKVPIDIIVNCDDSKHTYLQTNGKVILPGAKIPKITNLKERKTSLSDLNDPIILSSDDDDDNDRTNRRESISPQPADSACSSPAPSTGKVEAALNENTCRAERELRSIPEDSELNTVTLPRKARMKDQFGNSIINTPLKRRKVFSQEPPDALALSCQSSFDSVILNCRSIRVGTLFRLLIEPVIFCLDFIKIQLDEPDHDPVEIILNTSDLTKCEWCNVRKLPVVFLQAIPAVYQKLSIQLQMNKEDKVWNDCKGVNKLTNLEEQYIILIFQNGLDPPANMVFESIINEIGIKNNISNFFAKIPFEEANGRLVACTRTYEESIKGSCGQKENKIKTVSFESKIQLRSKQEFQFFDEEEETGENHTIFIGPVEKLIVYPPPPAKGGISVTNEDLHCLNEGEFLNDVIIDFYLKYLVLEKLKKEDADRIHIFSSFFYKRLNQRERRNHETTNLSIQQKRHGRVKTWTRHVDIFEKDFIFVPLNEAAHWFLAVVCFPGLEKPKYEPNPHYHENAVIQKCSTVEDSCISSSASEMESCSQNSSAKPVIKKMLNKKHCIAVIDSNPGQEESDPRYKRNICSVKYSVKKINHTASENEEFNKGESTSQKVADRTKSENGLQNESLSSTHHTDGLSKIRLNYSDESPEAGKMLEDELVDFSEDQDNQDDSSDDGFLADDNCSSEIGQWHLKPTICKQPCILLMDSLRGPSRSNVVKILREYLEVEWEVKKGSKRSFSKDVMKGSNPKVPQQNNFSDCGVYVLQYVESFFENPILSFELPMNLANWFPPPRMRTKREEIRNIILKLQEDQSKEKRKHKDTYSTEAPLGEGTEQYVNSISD

[5] = target: T5, Sentrin-specific protease 8 (Homo sapiens, UniProt Q96LD8);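 further: luminescence read-out of SENP8 inhibition, dose-response confirmation following an ultra-high-throughput screen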
T5 sequence (Q96LD8 whole entry): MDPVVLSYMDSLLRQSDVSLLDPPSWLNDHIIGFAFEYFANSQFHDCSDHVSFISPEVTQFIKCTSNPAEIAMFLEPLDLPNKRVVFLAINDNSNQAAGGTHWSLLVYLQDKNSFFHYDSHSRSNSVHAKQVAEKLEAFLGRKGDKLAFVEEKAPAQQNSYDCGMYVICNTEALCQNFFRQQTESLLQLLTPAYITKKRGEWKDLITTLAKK

Genome polyprotein = Genome polyprotein (dengue virus type 2, UniProt P29990); test: Dengue-2 NS5 methyltransferase inhibitors, primary screen, biochemical, confirmation dose response (AID 588689)
Sequence of Genome polyprotein (P29990 2492-3391 limits assumed): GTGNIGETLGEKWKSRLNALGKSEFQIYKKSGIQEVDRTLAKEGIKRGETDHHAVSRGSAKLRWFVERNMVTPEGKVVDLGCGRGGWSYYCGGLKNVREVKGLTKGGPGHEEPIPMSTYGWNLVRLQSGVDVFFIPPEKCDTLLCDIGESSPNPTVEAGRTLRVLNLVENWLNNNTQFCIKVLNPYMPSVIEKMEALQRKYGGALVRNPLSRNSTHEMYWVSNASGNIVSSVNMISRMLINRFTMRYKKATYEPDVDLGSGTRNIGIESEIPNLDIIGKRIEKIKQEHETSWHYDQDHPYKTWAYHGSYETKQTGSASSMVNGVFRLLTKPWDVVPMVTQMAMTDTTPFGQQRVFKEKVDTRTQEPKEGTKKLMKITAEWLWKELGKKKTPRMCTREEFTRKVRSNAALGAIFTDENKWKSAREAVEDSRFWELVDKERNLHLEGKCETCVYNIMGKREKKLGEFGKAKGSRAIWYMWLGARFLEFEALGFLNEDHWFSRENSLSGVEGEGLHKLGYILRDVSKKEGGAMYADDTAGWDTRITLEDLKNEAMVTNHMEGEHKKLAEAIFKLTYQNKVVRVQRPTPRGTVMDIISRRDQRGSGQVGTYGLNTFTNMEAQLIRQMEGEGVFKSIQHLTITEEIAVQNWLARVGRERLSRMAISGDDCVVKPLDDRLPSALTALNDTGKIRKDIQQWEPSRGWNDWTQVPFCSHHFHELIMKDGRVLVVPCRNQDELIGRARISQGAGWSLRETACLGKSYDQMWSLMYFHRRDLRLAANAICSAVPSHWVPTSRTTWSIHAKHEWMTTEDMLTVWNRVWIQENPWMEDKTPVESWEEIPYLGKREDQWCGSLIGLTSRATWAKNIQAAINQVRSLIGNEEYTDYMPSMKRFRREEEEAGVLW

[6] = target: T6, Replicative DNA helicase DnaB (Mycobacterium tuberculosis, UniProt P9WMR3); test: DnaB intein splicing inhibitors, dose response, biochemical, cell-free fluorescence (AID 449749)
T6 sequence (P9WMR3 whole entry): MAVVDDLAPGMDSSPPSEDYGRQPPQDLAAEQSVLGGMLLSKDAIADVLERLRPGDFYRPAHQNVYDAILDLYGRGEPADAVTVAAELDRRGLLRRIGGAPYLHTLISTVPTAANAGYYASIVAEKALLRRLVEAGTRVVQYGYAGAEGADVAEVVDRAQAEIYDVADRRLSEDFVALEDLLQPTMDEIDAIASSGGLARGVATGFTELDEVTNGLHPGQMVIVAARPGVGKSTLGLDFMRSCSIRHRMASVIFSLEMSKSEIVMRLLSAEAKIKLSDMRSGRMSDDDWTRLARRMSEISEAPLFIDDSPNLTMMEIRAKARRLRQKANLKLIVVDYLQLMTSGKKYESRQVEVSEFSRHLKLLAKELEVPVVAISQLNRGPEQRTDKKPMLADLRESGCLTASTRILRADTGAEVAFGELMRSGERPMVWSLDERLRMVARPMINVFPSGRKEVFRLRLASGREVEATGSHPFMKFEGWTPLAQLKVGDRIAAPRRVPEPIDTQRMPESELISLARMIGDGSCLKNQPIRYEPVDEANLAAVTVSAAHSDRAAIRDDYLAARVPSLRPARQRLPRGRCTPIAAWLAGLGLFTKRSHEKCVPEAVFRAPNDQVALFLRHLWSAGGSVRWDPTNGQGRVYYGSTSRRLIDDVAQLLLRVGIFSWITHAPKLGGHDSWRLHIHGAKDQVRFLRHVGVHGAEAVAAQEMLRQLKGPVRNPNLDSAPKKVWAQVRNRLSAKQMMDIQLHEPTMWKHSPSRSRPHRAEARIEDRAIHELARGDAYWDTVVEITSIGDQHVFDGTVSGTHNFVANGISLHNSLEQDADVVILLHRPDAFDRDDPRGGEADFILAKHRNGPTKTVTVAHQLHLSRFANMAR

Protein RecA = target: T7, Protein RecA (Mycobacterium tuberculosis, UniProt P9WHJ3); test: Fluorescence Cell-Free Homogeneous Dose Retest to Identify Inhibitors of RecA-Intein Splicing Activity. [Related pubchem assays (depositor defined):AID2097, AID2223, AID489010, AID492950]
T7 sequence (P9WHJ3 whole entry): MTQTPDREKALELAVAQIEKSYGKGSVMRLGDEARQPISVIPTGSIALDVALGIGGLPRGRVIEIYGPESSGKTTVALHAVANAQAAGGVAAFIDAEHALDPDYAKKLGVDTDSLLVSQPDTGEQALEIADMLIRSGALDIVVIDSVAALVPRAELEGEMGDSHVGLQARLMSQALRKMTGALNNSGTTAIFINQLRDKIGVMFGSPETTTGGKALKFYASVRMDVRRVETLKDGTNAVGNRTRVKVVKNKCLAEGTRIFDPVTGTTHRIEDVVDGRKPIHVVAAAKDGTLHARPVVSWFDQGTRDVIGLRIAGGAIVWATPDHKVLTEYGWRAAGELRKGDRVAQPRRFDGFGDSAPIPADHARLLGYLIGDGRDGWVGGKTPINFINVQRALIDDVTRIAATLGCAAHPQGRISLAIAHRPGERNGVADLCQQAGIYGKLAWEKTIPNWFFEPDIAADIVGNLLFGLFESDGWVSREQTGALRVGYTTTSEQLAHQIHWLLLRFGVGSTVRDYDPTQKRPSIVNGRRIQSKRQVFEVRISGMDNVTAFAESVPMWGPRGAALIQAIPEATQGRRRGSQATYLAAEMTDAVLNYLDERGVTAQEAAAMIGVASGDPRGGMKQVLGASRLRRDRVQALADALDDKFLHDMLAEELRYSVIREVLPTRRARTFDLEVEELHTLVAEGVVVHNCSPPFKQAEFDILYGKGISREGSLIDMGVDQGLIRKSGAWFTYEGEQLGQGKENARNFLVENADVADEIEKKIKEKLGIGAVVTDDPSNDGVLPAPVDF

T1 sequence (P49327 whole entry, the tested form may be a part): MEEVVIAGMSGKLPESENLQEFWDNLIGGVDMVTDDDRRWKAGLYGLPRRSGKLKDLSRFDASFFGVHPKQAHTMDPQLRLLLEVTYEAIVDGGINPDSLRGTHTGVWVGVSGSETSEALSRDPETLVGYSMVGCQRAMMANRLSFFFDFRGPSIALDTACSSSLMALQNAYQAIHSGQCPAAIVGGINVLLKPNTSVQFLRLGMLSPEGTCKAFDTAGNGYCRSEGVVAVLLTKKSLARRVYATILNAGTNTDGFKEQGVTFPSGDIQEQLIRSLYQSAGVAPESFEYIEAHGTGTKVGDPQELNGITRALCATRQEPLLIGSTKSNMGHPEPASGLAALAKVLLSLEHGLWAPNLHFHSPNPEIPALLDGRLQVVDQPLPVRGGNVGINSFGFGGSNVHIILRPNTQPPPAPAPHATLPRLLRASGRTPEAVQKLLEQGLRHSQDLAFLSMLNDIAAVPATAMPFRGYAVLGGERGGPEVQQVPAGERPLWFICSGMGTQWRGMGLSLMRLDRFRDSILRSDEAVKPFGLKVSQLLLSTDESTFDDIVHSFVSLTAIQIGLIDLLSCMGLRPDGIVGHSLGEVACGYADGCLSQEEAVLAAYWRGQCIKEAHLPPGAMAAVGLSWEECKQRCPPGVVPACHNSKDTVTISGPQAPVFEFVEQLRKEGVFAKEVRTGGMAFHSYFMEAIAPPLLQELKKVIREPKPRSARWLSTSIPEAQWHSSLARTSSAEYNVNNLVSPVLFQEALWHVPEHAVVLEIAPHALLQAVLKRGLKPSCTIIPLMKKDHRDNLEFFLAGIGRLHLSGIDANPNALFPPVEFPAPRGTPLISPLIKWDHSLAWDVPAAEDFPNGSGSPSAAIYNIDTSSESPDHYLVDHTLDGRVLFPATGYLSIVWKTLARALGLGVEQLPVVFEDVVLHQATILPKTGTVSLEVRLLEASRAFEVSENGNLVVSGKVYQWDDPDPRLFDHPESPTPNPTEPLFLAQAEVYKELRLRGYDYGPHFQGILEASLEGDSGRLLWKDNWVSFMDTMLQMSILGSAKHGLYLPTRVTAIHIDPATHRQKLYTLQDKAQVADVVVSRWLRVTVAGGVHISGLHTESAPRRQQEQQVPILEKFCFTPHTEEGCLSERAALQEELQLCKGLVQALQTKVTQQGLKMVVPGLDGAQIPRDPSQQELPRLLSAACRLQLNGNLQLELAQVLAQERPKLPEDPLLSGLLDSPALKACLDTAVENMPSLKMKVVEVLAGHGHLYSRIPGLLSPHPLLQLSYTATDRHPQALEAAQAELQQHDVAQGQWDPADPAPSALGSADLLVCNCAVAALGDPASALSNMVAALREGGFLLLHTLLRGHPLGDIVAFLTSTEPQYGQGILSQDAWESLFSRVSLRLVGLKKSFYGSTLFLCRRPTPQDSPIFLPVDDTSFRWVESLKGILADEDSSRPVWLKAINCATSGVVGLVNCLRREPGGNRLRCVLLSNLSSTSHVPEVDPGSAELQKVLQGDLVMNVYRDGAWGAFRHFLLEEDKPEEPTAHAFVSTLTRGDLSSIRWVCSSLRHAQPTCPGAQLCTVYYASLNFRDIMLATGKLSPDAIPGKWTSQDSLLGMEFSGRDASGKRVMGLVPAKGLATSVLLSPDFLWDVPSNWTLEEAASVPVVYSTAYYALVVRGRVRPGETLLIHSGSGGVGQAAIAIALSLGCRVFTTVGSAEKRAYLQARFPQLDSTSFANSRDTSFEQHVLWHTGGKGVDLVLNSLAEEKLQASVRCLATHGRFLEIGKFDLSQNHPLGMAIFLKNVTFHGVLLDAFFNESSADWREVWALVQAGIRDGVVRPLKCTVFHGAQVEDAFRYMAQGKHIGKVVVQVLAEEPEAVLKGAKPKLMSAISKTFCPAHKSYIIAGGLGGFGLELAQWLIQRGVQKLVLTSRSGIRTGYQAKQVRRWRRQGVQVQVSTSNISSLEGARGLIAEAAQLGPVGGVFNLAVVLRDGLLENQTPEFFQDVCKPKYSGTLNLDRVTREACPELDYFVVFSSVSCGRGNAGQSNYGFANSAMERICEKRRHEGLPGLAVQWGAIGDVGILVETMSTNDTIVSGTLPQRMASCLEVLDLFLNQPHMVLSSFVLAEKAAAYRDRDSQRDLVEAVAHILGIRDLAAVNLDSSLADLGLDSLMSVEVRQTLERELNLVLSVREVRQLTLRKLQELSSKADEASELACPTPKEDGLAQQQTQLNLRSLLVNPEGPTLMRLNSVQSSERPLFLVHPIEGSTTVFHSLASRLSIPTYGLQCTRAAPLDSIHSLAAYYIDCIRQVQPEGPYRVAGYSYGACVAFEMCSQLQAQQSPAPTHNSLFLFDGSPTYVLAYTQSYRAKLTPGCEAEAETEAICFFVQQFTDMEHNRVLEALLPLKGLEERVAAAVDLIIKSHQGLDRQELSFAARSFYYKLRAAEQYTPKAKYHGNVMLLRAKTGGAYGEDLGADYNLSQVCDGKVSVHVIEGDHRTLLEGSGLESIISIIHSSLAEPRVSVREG

Q: Which IC50 (Fatty acid synthase [1]) does the source give for `O=c1oc(-c2ccco2)nc2sc3c(c12)CCCCC3` here?
A: Its IC50 is 5.34 µM (active).

Q: And the IC50 (Fatty acid synthase [2])?
A: Its IC50 is 3.45 µM (active).

Q: What does the source list for `CC(C)c1ccc(/N=C/c2c(O)oc3ccccc3c2=O)cc1`?
A: IC50 (Caspase-3): 16.9 µM (active); IC50 [3]: 3.15 µM (active); IC50 [4]: 30.5 µM (active); IC50 [5]: 90.6 µM (active)

Q: `COc1ccc(Cl)cc1/C=C1/C(=O)ON=C1C` was tested. Which IC50 (Genome polyprotein) did it give?
A: Its IC50 is > 100 µM (active).

Q: For `CCOC(=O)CC1=NN(c2ccccc2)C(=O)/C1=C\c1ccc(OC)cc1OC`, which AC50 [6] is on record?
A: Its AC50 is 0.805 µM (active).

Q: And the EC50 (Protein RecA)?
A: Its EC50 is 0.104 µM (active).

Q: And the IC50 (Genome polyprotein)?
A: Its IC50 is 27.1 µM (active).

Q: Which results are given for `COCC(C)n1c(C)cc(C(=O)COC(=O)c2n[nH]c3ccccc23)c1C` (configuration not stated)?
A: IC50 (Caspase-3): 16.8 µM (active); IC50 [3]: 7.13 µM (active); IC50 [4]: 24.3 µM (active); IC50 [5]: 42.9 µM (active)

Q: What does the source list for `O=C(CCN1C(=O)/C(=C\c2ccccc2Cl)SC1=S)Nc1cccnc1`?
A: IC50 (Fatty acid synthase [1]): 7.21 µM (active); IC50 (Fatty acid synthase [2]): 6.84 µM (active)

Q: Which results are given for `Cc1nnc(SC(C(=O)Nc2ccc(Cl)c([N+](=O)[O-])c2)c2ccccc2)nc1O` (configuration not stated)?
A: IC50 (Fatty acid synthase [1]): 17.3 µM (active); IC50 (Fatty acid synthase [2]): 15.9 µM (active)

Q: For `CC1=NN(c2ccccc2)C(=O)C1=Cc1ccccc1`, which IC50 (Genome polyprotein) is on record?
A: The IC50 was 59.4 µM (active).

Q: Which results are given for `O=C(O)c1cccc(NC(=O)c2cccc(S(=O)(=O)Nc3cccc([N+](=O)[O-])c3)c2)c1`?
A: IC50 (Caspase-3): 19.2 µM (active); IC50 [3]: 5.29 µM (active); IC50 [4]: 9.02 µM (active); IC50 [5]: 11.9 µM (active)

Q: Which results are given for `O=C(Cn1cc([N+](=O)[O-])ccc1=O)N1CCc2ccccc2C1`?
A: IC50 (Fatty acid synthase [1]): 3.74 µM (active); IC50 (Fatty acid synthase [2]): 5.97 µM (active)

Q: For `O=C(COC(=O)c1cc([N+](=O)[O-])ccc1NCCO)Nc1ccc2c(c1)OCO2`, which IC50 (Fatty acid synthase [1]) is on record?
A: Its IC50 is 2.69 µM (active).

Q: What about the IC50 (Fatty acid synthase [2]) of the same compound?
A: The IC50 was 4.51 µM (active).

Q: `CCN(CCCNc1cc2c(c(N)c1S(=O)(=O)O)C(=O)c1ccccc1C2=O)c1ccccc1` was tested. Which IC50 (Genome polyprotein) did it give?
A: Its IC50 is 31.6 µM (active).

Q: With `Cc1nc(Cl)sc1C(=O)Nc1ccc2ccccc2c1` as the compound, how does the IC50 (Caspase-3) read?
A: Its IC50 is 22.7 µM (active).

Q: What about the IC50 [3] of the same compound?
A: Its IC50 is 7.54 µM (active).

Q: What about the IC50 [4] of the same compound?
A: Its IC50 is 23.9 µM (active).

Q: And the IC50 [5]?
A: Its IC50 is 29.8 µM (active).
